Experimental data as given in article PMC11945486, “TAS1R2/TAS1R3 Single-Nucleotide Polymorphisms Affect Sweet Taste Receptor Activation by Sweeteners: The SWEET Project” (Nutrients, 2025).
Read-outs that look alike come from different tables or passages of the source. No end group written: not given here.

T1: human TAS1R2-WT/TAS1R3-C757R (Homo sapiens, UniProt Q7RTX0+Q8TE23, C757R)
T1 construct: expressed in transfected cells; host or cells: HEK293T stably expressing Gα16gust44
T1 sequence (Q8TE23 20-839): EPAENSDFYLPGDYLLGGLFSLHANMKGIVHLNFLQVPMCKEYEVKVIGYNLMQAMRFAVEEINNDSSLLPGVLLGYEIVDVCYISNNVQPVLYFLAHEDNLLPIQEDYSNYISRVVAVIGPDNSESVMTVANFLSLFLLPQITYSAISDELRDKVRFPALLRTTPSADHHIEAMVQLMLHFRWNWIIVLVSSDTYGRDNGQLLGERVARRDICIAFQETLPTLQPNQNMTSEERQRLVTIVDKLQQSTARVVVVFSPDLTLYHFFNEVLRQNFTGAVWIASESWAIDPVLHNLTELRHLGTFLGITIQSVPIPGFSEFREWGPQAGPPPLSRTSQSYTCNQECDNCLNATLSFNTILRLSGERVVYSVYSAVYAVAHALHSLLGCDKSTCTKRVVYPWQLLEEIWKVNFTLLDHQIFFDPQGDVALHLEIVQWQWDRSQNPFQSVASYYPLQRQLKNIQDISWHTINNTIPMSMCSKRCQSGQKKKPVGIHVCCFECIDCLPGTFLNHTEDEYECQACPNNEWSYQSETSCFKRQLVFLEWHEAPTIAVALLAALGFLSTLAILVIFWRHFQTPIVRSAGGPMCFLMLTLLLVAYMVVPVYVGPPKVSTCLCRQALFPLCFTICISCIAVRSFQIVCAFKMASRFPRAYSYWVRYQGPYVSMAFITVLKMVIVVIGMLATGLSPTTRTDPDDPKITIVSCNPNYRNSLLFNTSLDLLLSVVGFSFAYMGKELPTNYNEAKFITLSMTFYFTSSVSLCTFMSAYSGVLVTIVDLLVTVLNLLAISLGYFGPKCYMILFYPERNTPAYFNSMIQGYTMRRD
T1 sequence (Q7RTX0 21-852 C757R): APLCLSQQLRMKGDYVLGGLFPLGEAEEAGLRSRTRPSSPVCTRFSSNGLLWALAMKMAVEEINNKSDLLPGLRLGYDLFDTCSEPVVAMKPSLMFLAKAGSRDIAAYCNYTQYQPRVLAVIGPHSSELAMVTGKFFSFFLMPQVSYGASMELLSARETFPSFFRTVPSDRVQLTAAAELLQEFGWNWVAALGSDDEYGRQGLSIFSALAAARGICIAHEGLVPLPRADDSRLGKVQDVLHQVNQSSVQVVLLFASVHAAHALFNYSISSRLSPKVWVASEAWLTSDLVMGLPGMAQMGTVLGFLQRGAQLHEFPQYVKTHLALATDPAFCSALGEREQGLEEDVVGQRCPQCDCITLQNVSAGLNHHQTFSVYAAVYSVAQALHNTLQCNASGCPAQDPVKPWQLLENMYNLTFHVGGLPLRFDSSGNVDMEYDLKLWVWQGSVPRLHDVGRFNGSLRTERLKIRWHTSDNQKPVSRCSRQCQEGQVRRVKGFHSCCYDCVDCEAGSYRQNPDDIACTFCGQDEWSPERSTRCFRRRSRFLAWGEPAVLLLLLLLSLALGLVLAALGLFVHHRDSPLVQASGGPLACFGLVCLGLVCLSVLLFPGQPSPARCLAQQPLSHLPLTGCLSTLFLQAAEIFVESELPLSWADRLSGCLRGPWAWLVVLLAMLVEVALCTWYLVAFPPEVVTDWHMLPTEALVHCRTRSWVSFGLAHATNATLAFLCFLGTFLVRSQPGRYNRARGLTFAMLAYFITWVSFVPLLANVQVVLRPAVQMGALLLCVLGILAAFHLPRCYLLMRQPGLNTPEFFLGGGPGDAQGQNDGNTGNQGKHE

B1: thaumatin (protein)
chain: ATFEIVNRCSYTVWAAASKGDAALDAGGRQLNSGESWTINVEPGTKGGKIWARTDCYFDDSGSGICKTGDCGGLLRCKRFGRPPTTLAEFSLNQYGKDYIDISNIKGFNVPMDFSPTTRGCRGVRCAADIVGQCPAKLKAPGGGCNDACTVFQTSEYCCTTGKCGPTEYSRFFKRLCPDAFSYVLDKPTTVTCPGSSNYRVTFCPTA
modifications: Eight disulfides
notes: sweet-tasting plant protein, E957

Target: T1, human TAS1R2-WT/TAS1R3-C757R
Assay: Calcium mobilisation assay, TAS1R2-WT with TAS1R3 variant C757R
Format: cell-based
Conditions: for Max ΔF/F0: maximal signal amplitude
From the text: The coding sequences for TAS1R2 and TAS1R3 were commercially synthesised, and the human codon was optimised for expression in human cells. The coding sequences of human TAS1R2 and TAS1R3 were subcloned and inserted into the mammalian expression vectors pcDNA6/myc-HisA and pcDNA4/myc-HisA (Invitrogen; Thermo Fisher Scientific; Illkirch, France) between the EcoRI and NotI restriction sites, generating the plasmids pcDNA6-TAS1R2 and pcDNA4-TAS1R3, respectively. To increase protein expression in mammalian cells, an upstream start codon was used, which was a sequence called MAX, corresponding to the QBI SP163 element also described in pcDNA4-HisMax (Invitrogen; Thermo Fisher Scientific; Illkirch, France). To measure the expression level of the receptor by immunohistochemistry, we used the FLAG sequence ([…]) in the C-terminal position, which encodes the FLAG tag epitope. SNP variants of TAS1R2 and TAS1R3 were constructed based on […], respectively, using site-directed mutagenesis (Genewiz; Leipzig, Germany).
The HEK293T cells were kindly provided by Jay P. Slack (Givaudan Flavors Corporation; Cincinnati, OH, USA). HEK293T cells stably transfected with Gα16gust44 [43, 67] were seeded in poly-D-lysine-coated clear-bottom black 96-well plates (0.35 × 10^5 cells/well) in high-glucose DMEM supplemented with 2 mM GlutaMAX, 10% dialysed foetal bovine serum with penicillin/streptomycin and G418 (400 μg/mL) at 37 °C and 6.3% CO2 in a humidified atmosphere as previously reported. […] As a negative control, HEK293T cells were mock-transfected with the empty expression vector. After a further 24 h of incubation, the HEK293T cells were washed with C1 buffer (130 mM NaCl, 5 mM KCl, 10 mM HEPES pH 7.4 and 2 mM CaCl2). The 96-well plates containing the cells were then stimulated with sweet-tasting compounds. […] Different concentration ranges were tested depending on the sweet compound injected. The Ca^2+ changes were expressed as fractional changes in fluorescent light intensity: ΔF/F = (F − F0)/F0, where F was the fluorescent light intensity at each point, and F0 was the value of emitted fluorescent light prior to stimulus application. To calculate dose–response relationships, the changes in fluorescence upon stimulus application were averaged, mock-subtracted and baseline-corrected. The dose–response data obtained were adjusted using a 4-parameter logistic equation. The half-maximal effective concentrations (EC50 values) and maximal signal amplitudes were calculated using SigmaPlot software (version 15.0) (Systat Software; San Jose, CA, USA).
For in vitro calcium mobilisation assay performed on hTAS1R2-SNPs, hTAS1R3-SNPs and mTAS1R3-I60T, 6 to 7 concentrations were tested for each sweet compound, plus buffer alone. All concentration–receptor combinations were measured in duplicate, and each experiment was repeated at least 4 times (8 wells/concentration). Results were expressed for each concentration as ΔF/F mean ± SEM and represented as dose–response curves.

Row | Molecule | R1 = Variant EC50/WT EC50 | Max ΔF/F0 | EC50 (read-out: EC50) [µM] | EC50 (brazzein) [µg/mL]
1 | CC1=CC(=O)NS(=O)(=O)O1 [Acesulfame K, acesulfame K] | 0.8 | 0.42 ± 0.01 | 468 ± 31 | 
2 | O=S(=O)(O)NC1CCCCC1 [Cyclamate, cyclamate] |  |  | 1150 ± 54 | 
3 | C[C@H](CC[C@@H](O[C@@H]1O[C@H](CO[C@@H]2O[C@H](CO)[C@@H](O)[C@H](O)[C@H]2O)[C@@H](O)[C@H](O)[C@H]1O[C@@H]1O[C@H](CO)[C@@H](O)[C@H](O)[C@H]1O)C(C)(C)O)[C@H]1CC[C@@]2(C)[C@@H]3CC=C4[C@@H](CC[C@H](O[C@@H]5O[C@H](CO[C@@H]6O[C@H](CO)[C@@H](O)[C@H](O)[C@H]6O)[C@@H](O)[C@H](O)[C@H]5O)C4(C)C)[C@]3(C)[C@H](O)C[C@]12C [Mogroside V, mogroside V] | 0.7 | 1.03 ± 0.02 | 21.7 ± 1 | 
4 | COc1ccc(CCC(=O)c2c(O)cc(O[C@@H]3O[C@H](CO)[C@@H](O)[C@H](O)[C@H]3O[C@@H]3O[C@@H](C)[C@H](O)[C@@H](O)[C@H]3O)cc2O)cc1O [NHDC, neohesperidin dihydrochalcone] | 0.7 | 0.98 ± 0.01 | 36.5 ± 16 | 
5 | COC(=O)[C@H](Cc1ccccc1)NC(=O)[C@H](CC(=O)O)NCCC(C)(C)C [Neotame] | 0.7 | 0.75 ± 0.03 | 0.88 ± 0.12 | 
6 | C=C(C)[C@@H]1CC=C(/C=N/O)CC1 [Perillartine, perillartine] | 0.6 | 1.23 ± 0.13 | 8.1 ± 2.6 | 
7 | C=C1C[C@@]23CC[C@H]4[C@@](C)(CCC[C@@]4(C)C(=O)O[C@@H]4O[C@H](CO)[C@@H](O)[C@H](O[C@@H]5O[C@H](CO)[C@@H](O)[C@H](O)[C@H]5O)[C@H]4O[C@@H]4O[C@H](CO)[C@@H](O)[C@H](O)[C@H]4O)[C@@H]2CC[C@]1(O[C@@H]1O[C@H](CO)[C@@H](O)[C@H](O[C@@H]2O[C@H](CO)[C@@H](O)[C@H](O)[C@H]2O)[C@H]1O[C@@H]1O[C@H](CO)[C@@H](O)[C@H](O)[C@H]1O)C3 [Rebaudioside M, rebaudioside M] | 0.6 | 1.13 ± 0.04 | 24.3 ± 2.2 | 
8 | OC[C@H]1O[C@H](O[C@]2(CCl)O[C@H](CCl)[C@@H](O)[C@@H]2O)[C@H](O)[C@@H](O)[C@H]1Cl [Sucralose] | 1.0 | 0.84 ± 0.03 | 113 ± 10 | 
9 | brazzein (QDKCKKVYENYPVSKCQLANQCNYDCKLDKHARSGECFYDEKRNLQCICDYCEY; ends and bridges not checked; cysteine pairing not given here; UniProt P56552 1-54, looked up) [sweet-tasting protein obtained by recombinant production using the yeast Pichia pastoris] | 0.7 | 0.86 ± 0.06 |  | 74.2 ± 1.9
10 | thaumatin | 0.6 | 0.69 ± 0.05 |  | 
11 | B1 |  |  | 6.7 ± 1.4 | 
